In patent US8163709B2, “TAK1-D mediated induction of cell death in human cancer cells by specific sequence short double-stranded RNAS” (Board of Regents of the University of Texas System, priority 2008, dated 2012):
Entries after “also recorded” stand apart in the source; their conditions may differ. d = 2'-deoxy (DNA); r = 2'-OH (RNA)

Legend:
p38 MAP kinase pathway = assay: Activation of the p38 MAP kinase pathway in H460 cells (Western blot); format: cell-based, human
Text: Both siRNAs were directed against the mRNA of the same gene TLK1.

SAPK/JNK pathway = assay: Activation of the SAPK/JNK pathway in H460 cells (Western blot); format: cell-based, human; conditions: H460, ribotoxins 90 minutes (same concentrations)
TAK1-D = target: T1, TAK1-D (Homo sapiens, UniProt O43318); assay: TAK1-D autophosphorylation on T184/T187 in H460 cells (Western blot, phospho-specific antibody); format: cell-based; design: endogenous in cells; host or cells: NCI-H460; conditions: for activating autophosphorylation of TAK1-D on T184 and T187: H460, ribotoxins 90 minutes (same concentrations); for activating autophosphorylation (activation) of TAK1-D on T184 and T187: RNA transfected (20 nM), Western blot
T1 sequence (O43318 1-491 isoform O43318-4): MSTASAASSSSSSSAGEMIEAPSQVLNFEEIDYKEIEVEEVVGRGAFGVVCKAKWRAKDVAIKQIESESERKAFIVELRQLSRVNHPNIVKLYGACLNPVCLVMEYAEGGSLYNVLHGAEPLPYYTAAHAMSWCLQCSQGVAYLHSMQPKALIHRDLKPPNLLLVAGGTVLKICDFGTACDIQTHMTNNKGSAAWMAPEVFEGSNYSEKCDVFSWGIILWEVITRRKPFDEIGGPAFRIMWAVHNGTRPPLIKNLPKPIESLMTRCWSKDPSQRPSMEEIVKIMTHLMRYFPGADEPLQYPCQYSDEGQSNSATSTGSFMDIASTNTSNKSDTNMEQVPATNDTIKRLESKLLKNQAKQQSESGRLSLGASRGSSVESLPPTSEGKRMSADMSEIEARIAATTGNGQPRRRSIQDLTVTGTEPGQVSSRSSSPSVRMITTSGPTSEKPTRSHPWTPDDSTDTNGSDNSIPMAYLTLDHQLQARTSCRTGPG
Experimental: In an effort to identify the MAPKKK responsible for the activation of the p38 MAP kinase and SAPK/JNK pathway, several of these kinases were screened for siRNA si5 mediated activation.
Immunoblot analysis. Western blotting was performed exactly as described previously (Kodym et al., 2008b). In addition to the primary antibodies previously mentioned (Kodym et al., 2008b) the following antibodies were used: S6 ribosomal protein (Cell Signaling #2217), DPM1 (Santa Cruz #sc-15836, Santa Cruz, Calif., USA), and Histone H3 (Cell Signaling #9715).

TAK1-A = assay: Autophosphorylation of the other (long) Tak1 splicing variants in H460 cells; format: cell-based, human; conditions: 10 ng/ml, 30 min
Text: In contrast only the long form (TAK1-A) is able to activate the NFκB pathway through phosphorylation of IKKα/β.

NF-κB = NF-κB activation in H460 cells (EMSA, IKKα/β phosphorylation); format: cell-based, human; conditions: 10 ng/ml, 30 min, listed as IL1β
Experimental: EMSA. Electrophoretic mobility shift assays for NFκB were performed as described previously (Kurland et al., 2001) using 3.5 μg of nuclear protein for each reaction.
FIG. 16B illustrates the effect of dominant-negative TAK1-D/K63W on dsRNA si5 induced cell death. […] As a slight growth inhibition of si5 transfected H460-K63W cells can be observed in FIG. 16B it is interesting to ask whether this is caused by an incomplete suppression of TAK1-D activity or by activation of other dsRNA-dependent stress pathways. To answer this question, the activation of the transcription factor NF-κB by dsRNA si5 was tested, as it well established that dsRNA triggered activation of PKR (Zamanian-Daryoush et al., 2000), TLR3 (Jiang et al., 2003), and RIG1/Mda-5 (Hiscott et al., 2006) leads to a downstream activation of NF-κB.

TLK1 = TLK1 post-transcriptional silencing in HeLa cells (Western blot); format: cell-based, human; conditions: 48 h after transfection
Experimental: In order to test whether dsRNA molecules show the same cellular uptake and stability the efficiency of these molecules to post-transcriptionally silence the expression of TLK1 was determined as si6 as well as si5 siRNA are directed against the mRNA of this protein. […] As a loading control the unchanged expression levels of TAK1-A/B and 3-tubulin are shown in the two lower panels.

H460 cells = assay: Survival assay of H460 cells, Crystal Violet staining

`CN(CC[C@H](N)CC(=O)N[C@H]1C=C[C@H](n2ccc(N)nc2=O)O[C@@H]1C(=O)O)C(=N)N` [Blasticidin S] was tested, and the “activating phosphorylations of p38 MAP kinase and its upstream kinases MKK3/6” value (p38 MAP kinase pathway) was “induced activating phosphorylations; also recorded: induce an activation of p38 MAP kinase and SAPK/JNK”, the “activating phosphorylations of SAPK/JNK and its upstream kinase MKK4” value (SAPK/JNK pathway) was “induced activating phosphorylations” and the “activating phosphorylations of SAPK/JNK and its upstream kinase MKK4” value (SAPK/JNK pathway; listed as blasticidin S) was “induce an activation of p38 MAP kinase and SAPK/JNK”. The “activating autophosphorylation of TAK1-D on T184 and T187” value (TAK1-D) was “No such activation was detectable”.

For `C[C@@H]1C[C@@H]([C@H](O)CC2CC(=O)NC(=O)C2)C(=O)[C@@H](C)C1` [Cycloheximide], the “activating phosphorylations of p38 MAP kinase and its upstream kinases MKK3/6” value (p38 MAP kinase pathway) was “induced activating phosphorylations; also recorded: induce an activation of p38 MAP kinase and SAPK/JNK”, the “activating phosphorylations of SAPK/JNK and its upstream kinase MKK4” value (SAPK/JNK pathway) was “induced activating phosphorylations” and the “activating phosphorylations of SAPK/JNK and its upstream kinase MKK4” value (SAPK/JNK pathway; listed as cycloheximide) was “induce an activation of p38 MAP kinase and SAPK/JNK”. For the same molecule, the “activating autophosphorylation of TAK1-D on T184 and T187” value (TAK1-D) was “No such activation was detectable”.

For `CN[C@@H]1[C@@H](O)[C@@H](O[C@@H]2[C@@H](O)[C@H](O[C@H]3O[C@H]([C@@H](C)O)[C@@H](O)[C@H](O)[C@H]3N)[C@@H](N)C[C@H]2N)OC[C@]1(C)O` [G418], the “activating phosphorylations of p38 MAP kinase and its upstream kinases MKK3/6” value (p38 MAP kinase pathway) was “exception” and the “activating phosphorylations of SAPK/JNK and its upstream kinase MKK4” value (SAPK/JNK pathway) was “exception”.

With `COc1ccc(C[C@H](N)C(=O)N[C@H]2[C@@H](O)[C@H](n3cnc4c(N(C)C)ncnc43)O[C@@H]2CO)cc1` [Puromycin, reference compound] the “activating phosphorylations of p38 MAP kinase and its upstream kinases MKK3/6” value (p38 MAP kinase pathway) was “induced activating phosphorylations”, the “activating phosphorylations of SAPK/JNK and its upstream kinase MKK4” value (SAPK/JNK pathway) was “induced activating phosphorylations” and the “activating autophosphorylation of TAK1-D on T184 and T187” value (TAK1-D) was “led to an activating autophosphorylation of TAK1-D”. For the same molecule, the “activating autophosphorylation of TAK1-D on T184 and T187” value (TAK1-D; listed as puromycin) was “induce an activating TAK1-D phosphorylation”.

“AU: dsRNA with alternating A and U bases (control, SEQ ID NO:21 and 22) (chain 1 AUAUAUAUAUAUAUAUAUATT; chain 2 TTUAUAUAUAUAUAUAUAUAU; chemistry not given here) [reference compound]” was tested, and the “activating autophosphorylation (activation) of TAK1-D on T184 and T187” value (TAK1-D; H460 cells) was “does not activate the TAK1-D pathway”.

“IL1: interleukin 1, positive control activating the long TAK1 variant via IL-1 receptor” was tested, and the “activation of the p38 MAP kinase pathway (MKK3/6)” value (p38 MAP kinase pathway; H460 cells, 10 ng/ml IL1) was “activating the p38 MAP kinase pathway (MKK3/6)”, the “autophosphorylation of the long splicing variant of Tak1” value (TAK1-A) was “autophosphorylation of the large splicing variant of Tak1 (A and B)” and the “autophosphorylation of the long splicing variant of Tak1” value (TAK1-A; listed as IL1β) was “activates exclusively the long form of TAK1 (TAK1-A)”. For the same molecule, the “activation of the NFκB cascade (IKKα/β phosphorylation)” value (NF-κB) was “activates the NFκB pathway” and the “activation of TAK1-D” value (TAK1-D; H460 cells, 10 ng/ml IL-1) was “does not activate TAK1-D”.

In the case of “OmeD: si5 sequence with 2′-O-methyl on both strands (SEQ ID NO:23 and 24) (chain 1 GGCUUUUGACCUUUAUGAAUU; chain 2 UUCCGAAAACUGGAAAUACUU; siRNA; 2'-O-methyl at dot-marked bases on both strands, pattern not given here; one strand is listed 3' to 5')”, the “expression level of TLK1” value (TLK1) is reported as “very significant reduction in the expression of TLK1” and the “activating autophosphorylation (activation) of TAK1-D on T184 and T187” value (TAK1-D; H460 cells) is reported as “no activation of Tak1-D could be detected”.

For “OmeS: si5 sequence with several bases of the sense strand 2′-O-methyl modified (SEQ ID NO:25 and 26) (chain 1 GGCUUUUGACCUUUAUGAAUU; chain 2 TTCCGAAAACUGGAAAUACUU; 2'-O-methyl on sense strand bases, chemistry not fully specified; one strand is listed 3' to 5')”, the “expression level of TLK1” value (TLK1) was “very significant reduction in the expression of TLK1”.

“shRNA: short hairpin RNA containing the si5 sequence, in vitro transcribed with T7 RNA polymerase (SEQ ID NO:20) (GGCUUUUGACCUUUAUGAAUUAAUUCAUAAAGGUCAAAAGCC; siRNA; RNA, phosphodiester; hairpin)” was tested, and the “cell death, crystal violet” value (H460 cells; H460, 48 hours after transfection, shRNA experiment) was “led to cell death”.

With “si5OMeA: si5 sequence with U and G 2′-O-methylated in the antisense strand only (SEQ ID NO:27 and 28) (chain 1 GGCUUUUGACCUUUAUGAATT; chain 2 UUCCGAAAACUGGAAAUACUU; 2'-O-methyl U and G in antisense strand, chemistry not fully specified; one strand is listed 3' to 5')” the “expression level of TLK1” value (TLK1) was “very significant reduction in the expression of TLK1”.

With “si5d: si5 with one U of the homopolymeric stretch changed to a C (SEQ ID NO:19) (GGCUUCUGACCUUUAUGAATT; siRNA; sugars from the 5' end r19 d2, backbone not given here)” the “expression level of TLK1” value (TLK1) was “very significant reduction in the expression of TLK1” and the “activating autophosphorylation (activation) of TAK1-D on T184 and T187” value (TAK1-D; H460 cells) was “significantly reduced the capacity of the molecule to activate TAK1-D”.

With “si5l: si5 extended by adding 2 ribonucleotides (SEQ ID NO:18) (GGCUUUUGACCUGUUUAUGAATT; siRNA; sugars from the 5' end r21 d2, backbone not given here)” the “activation of the p38 MAP kinase pathway (phosphorylation of MKK3/6, p38 MAPK)” value (p38 MAP kinase pathway; H460 cells, 20 nM RNA, 2-6 h) was “small activation of Tak1-D and p38 MAPK could still be observed”, the “expression level of TLK1” value (TLK1) was “lack of post-transcriptional silencing of TLK1” and the “activating autophosphorylation (activation) of TAK1-D on T184 and T187” value (TAK1-D; H460 cells) was “significantly reduced its activity”.

“si5s: si5 with two ribonucleotides in the middle of the molecule deleted (SEQ ID NO:17) (GGCUUUUGACUUAUGAATT; siRNA; sugars from the 5' end r17 d2, backbone not given here)” was tested, and the “expression level of TLK1” value (TLK1) was “lack of post-transcriptional silencing of TLK1” and the “activating autophosphorylation (activation) of TAK1-D on T184 and T187” value (TAK1-D; H460 cells) was “completely abolished its ability to activate Tak1-D”.

“si6: control 21-mer siRNA against TLK1 mRNA: GGGUGGAAAUGGCUCAAGUtt (SEQ ID NO: 4) / gtCCCACCUUUACCGAGUUCA (SEQ ID NO: 5) (sense GGGUGGAAAUGGCUCAAGUTT; antisense GTCCCACCUUUACCGAGUUCA; Artificial primer) [reference compound]” was tested, and the “cytotoxicity, Crystal Violet” value (H460 cells; H460, concentration range tested (up to 20 nM), 48 h) was “does not show any significant cytotoxicity”.
